We go through 15 compounds from patent publication US20070099877A1, “N-aryl-thienopyrimidin-4-amines and analogs as activators of caspases and inducers of apoptosis and the use thereof” (Cytovia, Inc., priority 2005, published 2007).

Holding throughout (format): cell-based
Experiment [1] has as its system human breast cancer cell line T-47D. Put plainly: Caspase cascade activation (DEVD-R110 fluorogenic substrate) in T-47D cells. To be noted: Homo sapiens, T47D. Here is the method:
(§1) Human breast cancer cell line T-47D, human lung cancer cell line H1299, human hepatocellular carcinoma cell line SNU398, human colon carcinoma cell line HCT116 were grown according to media component mixtures designated by American Type Culture Collection+10% FCS (Invitrogen Corporation), in a 5% CO2-95% humidity incubator at 37° C. T-47D and H1299 cells were maintained at a cell density between 50 and 80% confluency at a cell density of 0.1 to 0.6×10^6 cells/mL. Cells were harvested at 600×g and resuspended at 0.65×10^6 cells/mL into appropriate media+10% FCS. An aliquot of 22.5 μL of cells was added to a well of a 384-well microtiter plate containing 2.5 μL of a 10% DMSO in RPMI-1640 media solution containing 0.16 to 100 μM of N-(2,5-dimethoxyphenyl)-2-methylthieno[3,2-d]pyrimidin-4-amine or other test compound (0.016 to 10 μM final). An aliquot of 22.5 μL of cells was added to a well of a 384-well microtiter plate containing 2.5 μL of a 10% DMSO in RPMI-1640 media solution without test compound as the control sample. The samples were mixed by agitation and then incubated at 37° C. for 24 h or 48 h in a 5% CO2-95% humidity incubator. After incubation, the samples were removed from the incubator and 25 μL of a solution containing 14 μM of N-(Ac-DEVD)-N′-ethoxycarbonyl-R110 (SEQ ID NO.:1) fluorogenic substrate (Cytovia, Inc.; WO99/18856), 20% sucrose (Sigma), 20 mM DTT (Sigma), 200 mM NaCl (Sigma), 40 mM Na PIPES buffer pH 7.2 (Sigma), and 500 μg/mL lysolecithin (Calbiochem) was added. The samples were mixed by agitation and incubated at room temperature. Using a fluorescent plate reader (Model SPECTRAfluor Plus, Tecan), an initial reading (T=0) was made approximately 1-2 min after addition of the substrate solution, employing excitation at 485 nm and emission at 530 nm, to determine the background fluorescence of the control sample. After the 3 h incubation, the samples were read for fluorescence as above (T=3 h).
(§2) The Relative Fluorescence Unit values (RFU) were used to calculate the sample readings as follows: RFU(T=3h)−Control RFU(T=O)=Net RFU(T=3h)
(§3) The activity of caspase cascade activation was determined by the ratio of the net RFU value for N-(2,5-dimethoxyphenyl)-2-methylthieno[3,2-d]pyrimidin-4-amine or other test compound to that of control samples. The EC50 (nM) was determined by a sigmoidal dose-response calculation (Prism 3.0, GraphPad Software Inc.).

The subject of experiment [2] is human lung cancer cell line H1299. Briefly: Caspase cascade activation in H1299 cells. Conditions: NCI-H1299, 24 h, read-out: Caspase activation Potency EC50 H1299 (24 h). Here is the method:
as §1, §2, §3

In experiment [3] the test system is human hepatocellular carcinoma cell line SNU398. Put plainly: Caspase cascade activation in SNU398 cells. Conditions: Homo sapiens, SNU-398, 48 h, read-out: Caspase activation Potency EC50 SNU398 (48 h). Here is the method: as §1, §2, §3
In experiment [4] the test system is human colon carcinoma cell line HCT116. Briefly: Caspase cascade activation in HCT116 cells. To be noted: Homo sapiens, HCT-116, 48 h, read-out: Caspase activation Potency EC50 HCT116 (48 h). Here is the method:
as §1, §2, §3

[5] abbreviates: 24 h, T47D cells, 24 h, read-out: Caspase activation Potency EC50 T47D (24 h).
Where [6] appears, read: 48 h, T-47D cells, 48 h, read-out: Caspase activation Potency EC50 T-47D (48 h).

Counter-ions that a name gives are not always drawn. Like-named read-outs stand apart in the source and are kept apart here.

In general, EC50 refers to the concentration that produces a half-maximal response. Take `COc1ccc(O)c(Nc2ncnc3ccsc23)c1` [Example 42, N-(2-Hydroxy-5-methoxyphenyl)thieno[3,2-d]pyrimidin-4-amine]: the EC50 in experiment [1] (setting [5]), in experiment [1] (setting [6]), in experiment [2], in experiment [3] and in experiment [4] was over 10 µM in each case.

Take `COc1ccc(C(=O)O)cc1Nc1ncnc2ccsc12` [Example 41, 4-Methoxy-3-(thieno[3,2-d]pyrimidin-4-ylamino)-benzoic acid]: the EC50 in experiment [1] (setting [5]), in experiment [1] (setting [6]), in experiment [2], in experiment [3] and in experiment [4] was over 10 µM throughout.

For the compound `COc1ccc(OC)c(Nc2ncnc3cc(I)sc23)c1` [Example 17, 6-Iodo-N-(2,5-dimethoxyphenyl)thieno[3,2-d]pyrimidin-4-amine hydrochloride], the EC50 in experiment [1] (setting [5]) is 0.036 µM; in experiment [1] (setting [6]), 0.105 µM; in experiment [2], 0.299 µM; in experiment [3] it was 0.534 µM; in experiment [4], 0.346 µM.

On to `COc1ccc(OC)c(Nc2nc(SC)nc3ccsc23)c1` [Example 27, N-(2,5-Dimethoxyphenyl)-2-(methylthio)thieno[3,2-d]pyrimidin-4-amine], for which the EC50 in experiment [1] (setting [5]) amounted to 0.02 µM; in experiment [1] (setting [6]) it was 0.036 µM; in experiment [2], 0.041 µM; in experiment [3] it was 0.206 µM; in experiment [4] it was 0.319 µM.

Regarding `COc1ccc(Nc2nc(C)nc3sccc23)cc1` [Example 15, N-(4-Methoxyphenyl)-2-methylthieno[2,3-d]pyrimidin-4-amine], the EC50 in experiment [1] (setting [5]) was 5.74 µM; in experiment [1] (setting [6]) it was 5.46 µM; in experiment [2] it was 5.08 µM; in experiment [3], 5.28 µM; in experiment [4] it was over 10 µM.

With `Brc1cccc(Nc2ncnc3ccsc23)c1` [Example 25, N-(3-Bromophenyl)thieno[3,2-d]pyrimidin-4-amine hydrochloride], the EC50 in experiment [1] (setting [5]) is 5.57 µM; in experiment [1] (setting [6]), over 10 µM; in experiment [2], 5.44 µM; in experiment [3], over 10 µM; in experiment [4], over 10 µM.

`COc1ccc(Nc2ncnc3scc(C)c23)cc1` [Example 23, N-(4-Methoxyphenyl)-5-methylthieno[2,3-d]pyrimidin-4-amine]: the EC50 in experiment [1] (setting [5]), in experiment [1] (setting [6]), in experiment [2], in experiment [3] and in experiment [4] was over 10 µM in each case.

With `COc1ccc(Cl)cc1Nc1ncnc2ccsc12` [Example 39, N-(5-Chloro-2-methoxyphenyl)thieno[3,2-d]pyrimidin-4-amine], the EC50 in experiment [1] (setting [5]) was over 10 µM; in experiment [1] (setting [6]), 6.9 µM; in experiment [2], over 10 µM; in experiment [3], over 10 µM; in experiment [4], over 10 µM.

Take `COc1ccc(OC)c(Nc2nc(-c3ccccc3)nc3ccsc23)c1` [Example 26, N-(2,5-Dimethoxyphenyl)-2-phenylthieno[3,2-d]pyrimidin-4-amine]: the EC50 in experiment [1] (setting [5]) was 0.476 µM; in experiment [1] (setting [6]), 0.496 µM; in experiment [2], 5.04 µM; in experiment [3], over 10 µM; in experiment [4], over 10 µM.

Regarding `COc1ccc([N+](=O)[O-])cc1Nc1ncnc2ccsc12` [Example 37, N-(2-Methoxy-5-nitrophenyl)thieno[3,2-d]pyrimidin-4-amine], the EC50 in experiment [1] (setting [5]) was 5.07 µM; in experiment [1] (setting [6]) it was 5.33 µM; in experiment [2], 5.06 µM; in experiment [3] it was 3.57 µM; in experiment [4] it was over 10 µM.

For `COc1ccc([N+](=O)[O-])c(Nc2ncnc3ccsc23)c1` [Example 35, N-(5-Methoxy-2-nitrophenyl)thieno[3,2-d]pyrimidin-4-amine], the EC50 in experiment [1] (setting [5]), in experiment [1] (setting [6]), in experiment [2], in experiment [3] and in experiment [4] was over 10 µM each time.

Regarding `COc1cccc(Nc2ncnc3ccsc23)c1OC` [Example 9, N-(2,3-Dimethoxyphenyl)thieno[3,2-d]pyrimidin-4-amine hydrochloride], the EC50 in experiment [1] (setting [5]), in experiment [1] (setting [6]), in experiment [2], in experiment [3] and in experiment [4] was over 10 µM in each case.

As for `COc1cccc(Nc2ncnc3ccsc23)c1` [Example 11, N-(3-Methoxyphenyl)thieno[3,2-d]pyrimidin-4-amine hydrochloride], the EC50 in experiment [1] (setting [5]) is 0.555 µM; in experiment [1] (setting [6]), 1.19 µM; in experiment [2], 5.37 µM; in experiment [3], 5.73 µM; in experiment [4], over 10 µM.

`COc1ccc(Oc2ccccc2)cc1Nc1ncnc2ccsc12` [Example 38, N-(2-Methoxy-5-phenoxyphenyl)thieno[3,2-d]pyrimidin-4-amine]: the EC50 in experiment [1] (setting [5]), in experiment [1] (setting [6]), in experiment [2], in experiment [3] and in experiment [4] was over 10 µM throughout.

Turning to `COc1ccc(OC)c(Nc2ncnc3c(C)c(I)sc23)c1` [Example 18, 6-Iodo-N-(2,5-dimethoxyphenyl)-7-methylthieno[3,2-d]pyrimidin-4-amine hydrochloride], the EC50 in experiment [1] (setting [5]) was 0.071 µM; in experiment [1] (setting [6]), 0.171 µM; in experiment [2] it was 2.79 µM; in experiment [3], over 10 µM; in experiment [4], over 10 µM.
